According to publication PMC9020084 (iScience, 2022):

How the values were obtained:
Assay type in all cases: biochemical
SHIP1ΔC2 (S1ΔC2) = biological target: T1, SHIP1ΔC2 (S1ΔC2) (Homo sapiens, UniProt Q92835); assay: malachite green phosphate release; conditions: agonist (activation); C2 domain deleted
T1 sequence (Q92835 397-730): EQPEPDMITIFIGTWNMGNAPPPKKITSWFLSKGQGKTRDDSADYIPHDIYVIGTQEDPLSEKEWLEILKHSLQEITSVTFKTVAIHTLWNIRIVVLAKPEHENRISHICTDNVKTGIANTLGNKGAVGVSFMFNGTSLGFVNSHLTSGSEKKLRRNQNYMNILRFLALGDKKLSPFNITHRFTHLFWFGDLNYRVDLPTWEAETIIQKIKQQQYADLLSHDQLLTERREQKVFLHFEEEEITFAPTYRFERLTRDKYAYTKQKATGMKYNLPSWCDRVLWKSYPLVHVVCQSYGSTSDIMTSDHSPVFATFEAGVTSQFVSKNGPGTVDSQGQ

SHIP1-Enz (S1-Enz) = biological target: T2, SHIP1-Enz (S1-Enz) (Homo sapiens, UniProt Q92835); assay: fluorescence polarization PI
T2 sequence (Q92835 397-864): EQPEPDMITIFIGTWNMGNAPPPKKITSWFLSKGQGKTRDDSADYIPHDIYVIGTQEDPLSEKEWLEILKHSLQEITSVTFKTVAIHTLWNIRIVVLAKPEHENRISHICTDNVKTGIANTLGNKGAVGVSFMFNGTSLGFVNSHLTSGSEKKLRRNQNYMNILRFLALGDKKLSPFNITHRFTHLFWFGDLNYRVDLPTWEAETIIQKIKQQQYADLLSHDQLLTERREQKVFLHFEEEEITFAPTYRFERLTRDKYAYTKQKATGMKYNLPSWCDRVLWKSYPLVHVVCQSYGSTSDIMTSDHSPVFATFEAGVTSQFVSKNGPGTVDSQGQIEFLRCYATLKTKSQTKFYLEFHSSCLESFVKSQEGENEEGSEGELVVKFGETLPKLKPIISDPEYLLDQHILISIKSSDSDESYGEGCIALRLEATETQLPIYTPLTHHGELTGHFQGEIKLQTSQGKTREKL

SHIP2-Enz (S2-Enz) = biological target: T3, SHIP2-Enz (S2-Enz) (Homo sapiens, UniProt O15357); assay: fluorescence polarization PI
T3 sequence (O15357 414-872): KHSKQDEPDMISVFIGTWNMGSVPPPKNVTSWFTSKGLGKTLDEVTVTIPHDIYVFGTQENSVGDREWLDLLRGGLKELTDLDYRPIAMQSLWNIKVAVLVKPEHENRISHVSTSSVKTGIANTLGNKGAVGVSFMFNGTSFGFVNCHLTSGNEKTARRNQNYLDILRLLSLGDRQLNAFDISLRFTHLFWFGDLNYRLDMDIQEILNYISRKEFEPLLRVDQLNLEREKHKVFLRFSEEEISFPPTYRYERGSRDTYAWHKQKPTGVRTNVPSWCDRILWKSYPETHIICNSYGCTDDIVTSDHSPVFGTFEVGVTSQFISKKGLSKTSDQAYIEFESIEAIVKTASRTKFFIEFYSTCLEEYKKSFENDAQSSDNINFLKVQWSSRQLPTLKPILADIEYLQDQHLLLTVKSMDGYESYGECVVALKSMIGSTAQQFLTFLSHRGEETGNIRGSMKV

- EC50 (SHIP1-Enz (S1-Enz)): 119 nM
- EC50 (SHIP2-Enz (S2-Enz)): 1170 nM
SMILES: Cc1sc(S(=O)(=O)N2CCSCC2)cc1NC(=O)CNS(=O)(=O)c1ccc(F)cc1 [compound 8, K306]
- malachite green phosphate release (SHIP1ΔC2 (S1ΔC2)): K306 retained significant agonistic activity for SHIP1ΔC2
